# Measured values from paper PMC11997890, “In Vivo and In Vitro Pharmacokinetic Studies of a Dual Topoisomerase I/II Inhibitor” (ACS Pharmacology & Translational Science, 2025).
# Columns and labels:
# [1] = mice; ref not given; cited from earlier work
# CYP3A4 = biological target: T1, CYP3A4 (Homo sapiens, UniProt P08684); test: In vitro CYP inhibition, marker substrate testosterone; type: in vitro ADME
# T1 construct: host or cells: human liver microsomes (one value) / recombinant CYP enzyme (other value)
# T1 sequence (P08684 whole entry): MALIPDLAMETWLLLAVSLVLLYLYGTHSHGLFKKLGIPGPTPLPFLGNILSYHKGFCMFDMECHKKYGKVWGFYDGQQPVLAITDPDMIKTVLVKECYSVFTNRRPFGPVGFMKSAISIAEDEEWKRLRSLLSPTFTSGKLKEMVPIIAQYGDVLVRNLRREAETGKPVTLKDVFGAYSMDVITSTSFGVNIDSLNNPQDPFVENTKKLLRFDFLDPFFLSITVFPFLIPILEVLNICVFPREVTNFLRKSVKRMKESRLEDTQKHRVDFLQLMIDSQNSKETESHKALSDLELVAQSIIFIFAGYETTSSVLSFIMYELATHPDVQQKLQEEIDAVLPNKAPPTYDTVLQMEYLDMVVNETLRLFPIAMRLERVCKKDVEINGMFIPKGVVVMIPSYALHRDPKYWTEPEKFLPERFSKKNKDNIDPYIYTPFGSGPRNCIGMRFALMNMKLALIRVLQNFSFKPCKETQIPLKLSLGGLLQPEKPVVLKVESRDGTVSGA
# Description: (§1) To assess metabolizing enzyme-mediated drug interactions, P8-D6 was incubated with human liver (HLM) or recombinant CYP enzymes and the respective marker substrate according to the FDA (with the exception of using amitriptyline instead of S-mephenytoin). −
# (§2) However, as some conversions were catalyzed by several enzymes, the conversion rates in HLM increased (e.g., bupropion and diclofenac).
# (§3) To examine a possible in vitro CYP inhibition, the following CYP enzymes and marker substrates were investigated according to the FDA: , phenacetin (CYP1A2), bupropion (CYP2B6), amodiaquine (CYP2C8), diclofenac (CYP2C9), amitriptyline (CYP2C19), dextromethorphan (CYP2D6), testosterone (CYP3A4), and nifedipine (CYP3A4). Incubation was performed in a 0.2 mL reaction mix consisting of PBS buffer (pH 7.4), 1 mM marker substrate, 1 mM NADPH, and either 0.5 mg/mL recombinant CYP enzyme or human liver microsomes. P8-D6 was added for a final concentration of 0.5 μM, 1 μM, 5 μM, 10 μM, 25 μM, 50 μM, 100 μM, 500 μM, 1000 μM, and (in some cases) 5000 μM. Sample preparation was performed according to in vitro biotransformation.
# CYP2C9 = biological target: T2, CYP2C9 (Homo sapiens, UniProt P11712); test: In vitro CYP inhibition, marker substrate diclofenac; type: in vitro ADME
# T2 construct: host or cells: human liver microsomes (one value) / recombinant CYP enzyme (other value)
# T2 sequence (P11712 whole entry): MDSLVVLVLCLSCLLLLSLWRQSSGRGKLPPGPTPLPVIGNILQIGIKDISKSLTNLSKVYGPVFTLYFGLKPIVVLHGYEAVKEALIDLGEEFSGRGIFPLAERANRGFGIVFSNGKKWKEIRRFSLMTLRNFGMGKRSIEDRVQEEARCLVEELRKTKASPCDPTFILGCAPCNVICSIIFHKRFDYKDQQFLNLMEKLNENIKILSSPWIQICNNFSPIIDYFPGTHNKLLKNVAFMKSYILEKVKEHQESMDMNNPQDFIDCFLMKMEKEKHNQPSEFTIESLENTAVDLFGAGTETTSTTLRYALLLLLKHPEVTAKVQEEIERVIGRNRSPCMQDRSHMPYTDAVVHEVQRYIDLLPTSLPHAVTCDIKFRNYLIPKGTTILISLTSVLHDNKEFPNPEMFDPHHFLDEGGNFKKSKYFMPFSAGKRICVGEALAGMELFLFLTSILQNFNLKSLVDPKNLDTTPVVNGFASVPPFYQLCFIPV
# Description: as §1, §2, §3
# [2] = system: kidney tissue (γH2AX, c-PARP, OGG1); test: In vivo tolerability and immunohistochemistry of tissue damage markers; parameters: species or system Sprague–Dawley rats
# From the text: Organs were immunostained with antibodies to detect reactive oxygen species, DNA damage, and caspase levels, not showing abnormalities in the liver, lungs, spleen, kidneys, and colon (Figure E).
# OGG1, a marker for oxidative DNA damage produced by reactive oxygen species, was expressed weakly in the background and cytoplasm of the negative control samples of kidney tissue. […] No specific immunohistochemical reactions could be observed for the other organs.
# Tissues were fixed with 4% formaldehyde and dehydrated with an ethanol series before embedding in paraffin. Tissue sections were cut using a microtome; the tissue sections were deparaffinized and rehydrated in water. Hematoxylin and eosin (H and E) staining was carried out on a Tissue Tek Prisma Plus autostainer (SAKURA). For immunohistochemistry, sections were stained with antibodies directed against γH2AX (Cell Signaling #9718, dilution 1:200, DNA-damage), OGG1 (Proteintech #15125-1-AP, dilution 1:200, DNA-damage), and c-PARP (Abcam #ab32064, dilution 1:200, DNA-damage). […] The immunoreaction was visualized with the Bond Polymer Refine Detection Kit (DS 9800; brown labeling; Novocastra; Leica Biosystems GmbH), resulting in a brown color and counterstained with hematoxylin. The IHC stainings were carried out on the autostainer BOND RX system (Leica Biosystems GmbH). The stained tissue sections were digitalized with a NanoZoomer S60 Digital slide scanner (Hamamatsu) at a 40× magnification objective and analyzed by board-certified pathologists. The samples from three mice were analyzed.
# human FMO3 = human FMO3 (Homo sapiens, UniProt P31513); test: Conversion of P8-D6 by recombinant FMO3; type: in vitro ADME; details: seven recombinant CYP isoenzymes and human FMO3
# human FMO3, sequence (P31513 whole entry, the tested form may be a part): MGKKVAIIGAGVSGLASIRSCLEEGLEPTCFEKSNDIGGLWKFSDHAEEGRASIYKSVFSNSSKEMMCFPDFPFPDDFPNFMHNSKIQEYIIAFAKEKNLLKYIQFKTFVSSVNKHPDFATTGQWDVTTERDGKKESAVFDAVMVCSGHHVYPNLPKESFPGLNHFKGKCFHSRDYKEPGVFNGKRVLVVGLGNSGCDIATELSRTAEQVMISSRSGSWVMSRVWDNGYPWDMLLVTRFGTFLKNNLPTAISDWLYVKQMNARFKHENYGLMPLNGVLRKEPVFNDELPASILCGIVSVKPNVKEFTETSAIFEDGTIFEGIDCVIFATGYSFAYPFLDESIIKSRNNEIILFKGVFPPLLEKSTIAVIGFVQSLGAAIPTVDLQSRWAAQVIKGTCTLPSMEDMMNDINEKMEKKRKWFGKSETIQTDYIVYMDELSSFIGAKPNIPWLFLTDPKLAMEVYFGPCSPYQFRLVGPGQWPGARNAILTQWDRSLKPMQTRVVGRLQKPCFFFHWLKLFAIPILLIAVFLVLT
# Description: P8-D6 N-oxide was the most common metabolite for all incubations with subcellular fractions from the homogenized tissue. According to the detected MS-MS fragments (supplied as Supporting Information Chapter 2), it resulted from N-oxygenation of the nitrogen at the side chain since the unmodified fragment of P8-DO (m/z = 414.1) was detected. Furthermore, the detected fragment at m/z = 440.1 is most likely a carbocation at the remaining ethyl chain after splitting off the dimethylamine N-oxide further strengthening the theory of selectively forming this specific N-oxide. In addition, no relevant chemical shifts in the aromatic range of the ^1H NMR compared to P8-D6 and mono were observed (supplied as Supporting Information Chapter 2). Thus, no chemical modifications can have occurred on the aromatic rings, and all changes must therefore affect the side chain. […] To determine which enzymes were responsible for the conversion, seven recombinant CYP 450 isoenzymes recommended by the FDA’s “Guidance for Industry” and human FMO3 were used.
# For all phase I metabolism studies (except cell cultures), a 0.3 mL reaction mixture consisting of 1 mM substrate (P8-D6, P8-D6 mono, P8-D6 N-oxide), 1 mM NADPH as a cofactor, 0.67 mg/mL protein from homogenized tissue or subcellular fractions, respectively (except recombinant enzymes, where 0.5 mg/mL was used), and PBS buffer (pH 7.4) was used. […]
Compound,maximum tolerated dose [1],IC50 (CYP3A4; HLM),IC50 (CYP3A4; recombinant CYP isoenzyme),IC50 (CYP2C9; HLM),IC50 (CYP2C9; recombinant CYP isoenzyme),OGG1 immunohistochemistry (oxidative DNA damage) ([2]; kidney tissue),γH2AX immunohistochemistry (marker for DNA damage) ([2]; kidney tissue),signs of toxicity ([2]; p.o. 50 mg/kg BW and i.v. 10 mg/kg BW),C-PARP immunohistochemistry (marker of apoptosis) ([2]; vs positive and negative control),formation of metabolite from P8-D6 by recombinant enzymes (human FMO3)
"COc1cc(-c2cc3ccncc3c3nc(OCCN(C)C)c4cnccc4c23)cc(OC)c1OC [P8-D6, 6-(N,N-dimethyl-2-aminoethoxy)-11-(3,4,5-trimethoxyphenyl)-pyrido[3,4-c][1,9]-phenanthroline]",5 mg/kg BW,165 µM,94 µM,162 µM,71.4 µM,did not significantly differ from the negative control,diffuse positivity,no signs of toxicity,no significant difference,
COc1cc(-c2cc3ccncc3c3nc(OCC[N+](C)(C)[O-])c4cnccc4c23)cc(OC)c1OC [P8-D6 N-oxide],,,,,,,,,,only with FMO3
